Measured values reported in patent publication US6800637B2, “Antidepressant indolealkyl derivatives of heterocycle-fused benzodioxan methylamines” (Wyeth, priority 2002, dated 2004).
Where a name gives a salt, the structure may show the parent alone.

Legend:
human 5-HT1A receptors = target: T1, human 5-HT1A receptors (Homo sapiens, UniProt P08908); test: Displacement of [3H] 8-OHDPAT from 5-HT1A receptor, CHO cells stably transfected with human 5-HT1A receptors; assay type: binding; details: CHO cells with human 5-HT1A receptors, read-out: 5-HT1A Receptor Affinity KI
T1 construct: expressed in transfected cells; host or cells: CHO cells
T1 sequence (P08908 1-422): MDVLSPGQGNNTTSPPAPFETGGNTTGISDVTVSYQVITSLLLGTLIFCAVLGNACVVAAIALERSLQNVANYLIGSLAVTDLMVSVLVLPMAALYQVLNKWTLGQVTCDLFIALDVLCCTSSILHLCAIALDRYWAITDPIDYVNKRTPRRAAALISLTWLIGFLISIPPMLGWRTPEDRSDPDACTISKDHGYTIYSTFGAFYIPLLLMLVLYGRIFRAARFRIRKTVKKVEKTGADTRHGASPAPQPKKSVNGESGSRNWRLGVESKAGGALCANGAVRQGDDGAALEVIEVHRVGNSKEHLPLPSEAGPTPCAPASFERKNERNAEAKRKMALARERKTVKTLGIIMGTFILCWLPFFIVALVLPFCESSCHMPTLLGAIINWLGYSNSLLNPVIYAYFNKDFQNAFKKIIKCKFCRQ
Description: High affinity for the serotonin 5-HT1A receptor was established by testing the claimed compound's ability to displace [^3H] 8-OHDPAT (dipropylaminotetralin) from the 5-HT1A serotonin receptor following a modification of the procedure of Hall et al., J. Neurochem. 44, 1685 (1985) which utilizes CHO cells stably transfected with human 5-HT1A receptors.

[1] = target: T2, cloned human 5HT1A receptors (Homo sapiens, UniProt P08908); test: 35S-GTPγS binding assay, membranes containing cloned human 5HT1A receptors; assay type: biochemical; details: for IC50: antagonist potency, reversal of the effects of the standard agonist 8-OHDPAT, read-out: 5-HT1A Function IC50; for Emax: maximum inhibitory effect, read-out: 5-HT1A Function (Imax)
T2 construct: expressed in transfected cells
T2 sequence (P08908 1-422): T1 sequence (P08908 1-422)
Protocol: Antagonist activity at 5-HT1A receptors was established by using a ^35S-GTPγS binding assay similar to that used by Lazareno and Birdsall (Br. J. Pharmacol. 109: 1120, 1993), in which the test compound's ability to affect the binding of ^35S-GTPγS to membranes containing cloned human 5HT1A receptors was determined. Agonists produce an increase in binding whereas antagonists produce no increase but rather reverse the effects of the standard agonist 8-OHDPAT. The test compound's maximum inhibitory effect is represented as the Imax, while its potency is defined by the IC50.

serotonin transporter = target: T3, serotonin transporter (Rattus norvegicus, UniProt P31652); test: Displacement of 3H-paroxetine from male rat frontal cortical membranes (serotonin transporter affinity); assay type: binding; details: read-out: 5-HT Transporter Affinity KI
T3 construct: displace ^3H-paroxetine from male rat frontal cortical membranes; from tissue; host or cells: male rat frontal cortex membranes
T3 sequence (P31652 whole entry): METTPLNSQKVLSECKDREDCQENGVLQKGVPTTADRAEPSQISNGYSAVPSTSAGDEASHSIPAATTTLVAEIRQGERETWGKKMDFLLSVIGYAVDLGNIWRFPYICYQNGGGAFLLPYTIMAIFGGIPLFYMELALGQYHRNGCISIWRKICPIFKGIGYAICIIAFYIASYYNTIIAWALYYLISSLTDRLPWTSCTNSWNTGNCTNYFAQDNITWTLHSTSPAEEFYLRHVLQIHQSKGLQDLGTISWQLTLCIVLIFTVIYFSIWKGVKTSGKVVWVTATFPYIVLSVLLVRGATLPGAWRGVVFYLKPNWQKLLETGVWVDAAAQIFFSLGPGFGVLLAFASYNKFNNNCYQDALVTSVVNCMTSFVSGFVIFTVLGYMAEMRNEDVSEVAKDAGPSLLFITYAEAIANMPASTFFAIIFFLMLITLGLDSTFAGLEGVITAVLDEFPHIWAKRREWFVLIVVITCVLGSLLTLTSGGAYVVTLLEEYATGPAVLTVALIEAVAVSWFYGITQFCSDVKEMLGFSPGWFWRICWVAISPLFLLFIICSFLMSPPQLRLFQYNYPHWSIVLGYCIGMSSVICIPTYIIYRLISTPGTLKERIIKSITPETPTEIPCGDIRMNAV

| melting point [°C] | Ki (human 5-HT1A receptors) [nM] | IC50 [1] [nM] | Emax [1] [%] | Ki (serotonin transporter) [nM] | SMILES |
| --- | --- | --- | --- | --- | --- |
| 207 to 209 |  |  |  |  | Cc1ccc2c3c(ccc2n1)OC[C@H](CNCCCc1c[nH]c2ccc(F)cc12)O3 (as salt: fumarate) [Example 3, N-[3-(5-Fluoro-1H-Indolyl-3-yl)propyl]-N-(8-methyl-2,3-dihydro-[1,4]dioxino[2,3-f]quinolin-2-ylmethyl)amine] |
| 202 to 203 |  |  |  |  | Cc1ccc2c3c(ccc2n1)OCC(CNCCCc1c[nH]c2ccccc12)O3 (stereo not shown) (as salt: fumarate) [Example 6, N-[3-(1H-Indol-3-yl)propyl]-N-(8-methyl-2,3-dihydro-[1,4]dioxino[2,3-f]quinolin-2-ylmethyl)amine] |
| 104 to 120 |  |  |  |  | Cc1ccc2c3c(ccc2n1)OCC(CN(C)CCCc1c[nH]c2ccc(F)cc12)O3 (stereo not shown) (as salt: fumarate) [Example 7, N-[3-(5-Fluoro-1H-indol-3-yl)propyl]-N-methyl-N-(8-methyl-2,3-dihydro-[1,4]dioxino[2,3-f]quinolin-2-ylmethyl)amine] |
| 142 to 150 |  |  |  |  | Cc1ccc2c3c(ccc2n1)OCC(CNCCCc1c[nH]c2c(F)cccc12)O3 (stereo not shown) (as salt: fumarate) [Example 8, N-[3-(7-Fluoro-1H-indol-3-yl)propyl]-N-(8-methyl-2,3-dihydro-[1,4]dioxino[2,3-f]quinolin-2-ylmethyl)amine] |
| 208 to 210 |  |  |  |  | Cc1ccc2c3c(ccc2n1)OCC(CNCCCCc1c[nH]c2ccccc12)O3 (stereo not shown) (as salt: fumarate) [Example 9, N-[4-(1H-indol-3-yl)butyl]-N-(8-methyl-2,3-dihydro-[1,4]dioxino[2,3-f]quinolin-2-ylmethyl)amine] |
| 138 to 154 |  |  |  |  | Cc1ccc2c3c(ccc2n1)OCC(CNCCCCc1c[nH]c2ccc(F)cc12)O3 (stereo not shown) (as salt: fumarate) [Example 10, N-[4-(5-Fluoro-1H-indol-3-yl)butyl]-N-(8-methyl-2,3-dihydro-[1,4]dioxino[2,3-f]quinolin-2-ylmethyl)amine] |
| 156 to 161 |  |  |  |  | Cc1ccc2c3c(ccc2n1)OCC(CNCCCc1cn(C)c2ccc(F)cc12)O3 (stereo not shown) (as salt: fumarate) [Example 12, N-[3-(5-Fluoro-1-methyl-1H-indol-3-yl)propyl]-N-(8-methyl-2,3-dihydro-[1,4]dioxino[2,3-f]quinolin-2-ylmethyl)amine] |
|  | 0.05 | 31.4 | 85.6 | 6.7 | Cc1ccc2c3c(ccc2n1)OCC(CNCCCn1ccc2c(F)cccc21)O3 (stereo not shown) [Example 46, [3-(4-Fluoro-indol-1-yl)-propyl]-(8-methyl-2,3-dihydro-[1,4]dioxino[2,3-f]quinolin-2-ylmethyl)-amine] |
|  | 4.42 | 191 | 75.2 | 1 | Cc1ccc2c3c(ccc2n1)OCC(CN(C)CCCCn1ccc2ccc(F)cc21)O3 (stereo not shown) [Example 47, [4-(6-Fluoro-indol-1-yl)-butyl]-methyl-(8-methyl-2,3-dihydro-[1,4]dioxino[2,3-f]quinolin-2-ylmethyl)-amine] |
|  | 24.7 | 500 | 100 | 4.2 | Cc1ccc2c3c(ccc2n1)OC[C@H](CN(C)CCCn1ccc2c(F)cccc21)O3 [Example 48] |
|  | 0.73 | 99 | 33 | 23 | Cc1ccc2c3c(ccc2n1)OC[C@H](CNCCCCc1csc2ccc(Cl)cc12)O3 [Example 49] |
|  | 0.45 | 69 | 50 | 9.7 | Cc1ccc2c3c(ccc2n1)OC[C@H](CNCCCc1csc2ccc(Cl)cc12)O3 [Example 50] |
|  | 0.78 | 19 | 82 | 2.35 | Cc1ccc2c3c(ccc2n1)OC[C@H](CNCCCc1csc2ccc(F)cc12)O3 [Example 51, N-[3-(5-Fluoro-1-benzothien-3-yl)propyl]-N-{[(2S)-8-methyl-2,3-dihydro[1,4]dioxino[2,3-f]quinolin-2-yl]methyl}amine] |
